# Like-named read-outs stand apart in the source and are kept apart here.
# Target: PI3K isoform δ (Homo sapiens (Human), UniProt O00329)
# Assay: TR-FRET assay of enzymatic activity of class I PI3K isoforms
# Settings: TR-FRET, 2× Km ATP, 2 μM PIP2, incubated for 30 minutes at 25° C.
# [1] = read-out: IC50 (nM) for PI3K isoform δ (Table 3)
# [2] = read-out: IC50 (nM) for PI3K isoform δ (Table 2)
# Description: TR-FRET monitored the formation of 3,4,5-inositol triphosphate molecule that competed with fluorescently labeled PIP3 for binding to the GRP-1 pleckstrin homology domain protein. […] Class I PI3K isoforms were expressed and purified as heterodimeric recombinant proteins. All assay reagents and buffers for the TR-FRET assay were purchased from Millipore.
# Sequence of PI3K isoform δ (O00329 whole entry, canonical isoform): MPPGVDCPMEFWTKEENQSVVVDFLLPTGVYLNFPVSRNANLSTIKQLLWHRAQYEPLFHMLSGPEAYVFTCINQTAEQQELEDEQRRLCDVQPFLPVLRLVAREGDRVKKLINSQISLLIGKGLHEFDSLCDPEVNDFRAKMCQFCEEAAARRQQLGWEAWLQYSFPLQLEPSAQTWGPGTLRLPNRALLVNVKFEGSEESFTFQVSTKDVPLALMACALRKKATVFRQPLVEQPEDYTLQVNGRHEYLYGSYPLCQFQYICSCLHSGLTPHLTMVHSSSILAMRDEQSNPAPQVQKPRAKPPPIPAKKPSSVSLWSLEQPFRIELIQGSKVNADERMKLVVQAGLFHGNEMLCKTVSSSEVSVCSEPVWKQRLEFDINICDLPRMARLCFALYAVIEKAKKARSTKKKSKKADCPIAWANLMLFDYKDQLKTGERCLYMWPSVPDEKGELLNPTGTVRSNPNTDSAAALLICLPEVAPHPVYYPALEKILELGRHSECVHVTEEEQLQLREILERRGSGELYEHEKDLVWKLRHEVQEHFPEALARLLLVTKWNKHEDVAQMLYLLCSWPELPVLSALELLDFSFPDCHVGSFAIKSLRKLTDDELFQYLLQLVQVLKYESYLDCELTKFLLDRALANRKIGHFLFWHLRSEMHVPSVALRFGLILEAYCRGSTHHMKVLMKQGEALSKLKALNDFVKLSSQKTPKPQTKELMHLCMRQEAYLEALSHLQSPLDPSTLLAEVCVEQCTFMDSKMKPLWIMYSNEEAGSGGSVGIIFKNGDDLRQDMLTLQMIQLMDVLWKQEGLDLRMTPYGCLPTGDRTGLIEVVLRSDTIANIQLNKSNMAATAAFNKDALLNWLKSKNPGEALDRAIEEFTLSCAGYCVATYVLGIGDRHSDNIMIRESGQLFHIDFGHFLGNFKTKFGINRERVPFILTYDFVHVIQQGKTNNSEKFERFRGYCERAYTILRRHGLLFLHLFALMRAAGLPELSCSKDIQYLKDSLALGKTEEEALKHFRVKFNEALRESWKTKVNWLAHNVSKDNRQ
# Sequence of PI3K isoform δ (P27986 whole entry partner, canonical isoform): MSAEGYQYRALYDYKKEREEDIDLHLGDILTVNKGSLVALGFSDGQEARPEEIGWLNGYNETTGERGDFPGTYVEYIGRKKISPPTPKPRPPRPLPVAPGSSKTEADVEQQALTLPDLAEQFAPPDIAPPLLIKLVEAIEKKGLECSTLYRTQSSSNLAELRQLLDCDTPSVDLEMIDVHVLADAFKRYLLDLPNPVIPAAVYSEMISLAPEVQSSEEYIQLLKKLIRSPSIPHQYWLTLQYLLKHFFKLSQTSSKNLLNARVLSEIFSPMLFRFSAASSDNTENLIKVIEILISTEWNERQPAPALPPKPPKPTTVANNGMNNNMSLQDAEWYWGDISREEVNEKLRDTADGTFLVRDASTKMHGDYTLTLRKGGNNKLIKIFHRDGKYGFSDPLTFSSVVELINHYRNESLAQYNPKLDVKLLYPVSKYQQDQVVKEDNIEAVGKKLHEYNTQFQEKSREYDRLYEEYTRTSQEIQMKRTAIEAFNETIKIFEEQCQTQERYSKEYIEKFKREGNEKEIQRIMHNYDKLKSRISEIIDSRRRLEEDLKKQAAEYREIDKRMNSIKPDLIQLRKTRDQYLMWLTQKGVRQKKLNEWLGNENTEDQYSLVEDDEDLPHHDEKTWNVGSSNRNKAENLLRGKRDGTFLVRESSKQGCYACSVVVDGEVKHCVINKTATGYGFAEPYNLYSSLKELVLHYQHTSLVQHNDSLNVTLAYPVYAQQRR
IC50 [1],IC50 [2],SMILES
22 nM,–,"C[C@H](Nc1nc(N)nc(N)c1C#N)c1nc2cccc(OCCN3CCOCC3)c2c(=O)n1-c1ccccc1 [Compound 22, (S)-2,4-diamino-6-((1-(5-(2-morpholinoethoxy)-4-oxo-3-phenyl-3,4-dihydroquinazolin-2-yl)ethyl)amino)pyrimidine-5-carbonitrile]"
4 nM,–,"C[C@H](Nc1nc(N)nc(N)c1C#N)c1nc2cccc(CCC(N)=O)c2c(=O)n1-c1cc(F)cc(F)c1 [Compound 40, (S)-3-(2-(1-((2,6-diamino-5-cyanopyrimidin-4-yl)amino)ethyl)-3-(3,5-difluorophenyl)-4-oxo-3,4-dihydroquinazoline-5-yl)propanamide]"

# More lines, now with the values behind:
SMILES,IC50 [1],IC50 [2]
N#Cc1c(N)nc(N)nc1N[C@H](c1nc2cccc(C#N)c2c(=O)n1-c1cc(F)cc(C(F)F)c1)C1CC1 [Compound 4a],–,49 nM
"CS(=O)(=O)c1cccc2nc([C@@H](Nc3nc(N)nc(N)c3C#N)C3CC3)n(-c3cccc(F)c3)c(=O)c12 [Compound 5a, (S)-2,4-diamino-6-((cyclopropyl(3-(3-fluorophenyl)-5-(methylsulfonyl)-4-oxo-3,4-dihydroquinazolin-2-yl)methyl)amino)pyrimidine-5-carbonitrile]",–,5 nM
"C[C@H](Nc1nc(N)nc(N)c1C#N)c1nc2cccc(CCCN3CCOC(C)(C)C3)c2c(=O)n1-c1ccccc1 [Compound 52, (S)-2,4-diamino-6-((1-(5-(3-(2,2-dimethylmorpholino)propyl)-4-oxo-3-phenyl-3,4-dihydroquinazolin-2-yl)ethyl)amino)pyrimidine-5-carbonitrile]",0.7 nM,–

# — patent US9765060B2 (Gilead Sciences, Inc., priority 2014, dated 2017)
